{"source": "ChEMBL document CHEMBL3272295", "about": "“Drugs derived from cannabinoids. 5. delta6a,10a-Tetrahydrocannabinol and heterocyclic analogs containing aromatic side chains” (J Med Chem, 1976)", "key": {"Rattus norvegicus [1]": {"test_system": "Rattus norvegicus", "assay": "Increase in motor activity in Long-Evans rat at 10 mg/kg, po after 2 hrs relative to vehicle-treated control", "assay_type": "functional"}, "Rattus norvegicus [2]": {"test_system": "Rattus norvegicus", "assay": "Antipsychotic activity in rat assessed as reduction of methamphetamine-induced hyperactivity at 10 mg/kg, po administered prior to methamphetamine challenge relative to vehicle-treated control", "assay_type": "functional", "set-up": "scale not given: the % may be the effect or the level left"}, "Mus musculus [3]": {"test_system": "Mus musculus", "assay": "Antianxiety activity in albino BALB/cJ mouse assessed as reduction in footshock-induced fighting behavior at 10 mg/kg, po after 30 to 90 mins", "assay_type": "functional", "set-up": "scale not given: the % may be the effect or the level left"}, "Mus musculus [4]": {"test_system": "Mus musculus", "assay": "Analgesic activity in mouse assessed as inhibition of acetic acid-induced writhing at 10 mg/kg, po administered 30 mins prior to acetic acid challenge measured after 5 mins for 20 mins", "assay_type": "functional"}, "Rattus norvegicus [5]": {"test_system": "Rattus norvegicus", "assay": "Antihypertensive activity in spontaneously hypertensive rat model assessed as reduction in blood pressure at 30 mg/kg, po after 24 hrs", "assay_type": "functional", "set-up": "scale not given: the % may be the effect or the level left"}, "[6]": {"assay": "Acute toxicity in po dosed mouse", "assay_type": "organism-based", "conditions": "in vivo"}, "Rattus norvegicus [7]": {"test_system": "Rattus norvegicus", "assay": "Antihypertensive activity in spontaneously hypertensive rat model assessed as reduction in blood pressure at 30 mg/kg, po after 3 hrs", "assay_type": "functional", "set-up": "scale not given: the % may be the effect or the level left"}}, "data": [{"molecule": "C#CCN1CCC2=C(C1)c1c(O)cc(C(C)CCc3ccc(F)cc3)cc1OC2(C)C", "note": "(configuration not stated)", "values": [{"measurement": "Activity", "setting": "Rattus norvegicus [1]", "result": 44, "unit": "%"}, {"measurement": "Activity", "setting": "Rattus norvegicus [2]", "result": 0, "unit": "%"}, {"measurement": "Activity", "setting": "Mus musculus [3]", "result": 0, "unit": "%"}, {"measurement": "inhibition in vivo at 10 mg/kg", "setting": "Mus musculus [4]", "result": 10, "unit": "%"}, {"measurement": "Activity", "setting": "Rattus norvegicus [5]", "result": 13, "unit": "%"}, {"measurement": "LD50", "setting": "[6]", "result": "≥ 1000", "unit": "mg/kg"}, {"measurement": "Activity", "setting": "Rattus norvegicus [7]", "result": 4, "unit": "%"}]}]}
